Test results: patent US20050220726A1, “Use of sugar esters in cosmetic and/or pharmaceutical preparations” (priority 2003, published 2005)

How the values were obtained:
Type in all cases: cell-based
human keratinocytes [1] = experiment: Protecting cells against UVB radiation (cell DNA, LDH and PGE2 release); settings: + UV-B 50 mJ/cm^2; for Cell DNA: blank = 100, control + UV-B = 33; for LDH released / PGE2 released: control + UV-B = 100
Method: UVB was selected as the stress factor because the rays produce cutaneous inflammation (erythemas, oedemas) by activating enzymes that release arachidonic acid, such as phospholipase A2 (PLA2) for example. […] The influence of UVB rays on keratinocytes was determined in vitro through the release of cytoplasmatic enzymes, such as LDH (lactate dehydrogenase) for example, which runs parallel to the cell damage and the formation of PGE2. […] The quantity of keratinocytes was determined after trypsination via a cell counter while the LDH concentration was enzymatically determined. The results are set out in Table 4, where they are expressed as the activity in %-rel. against a standard, and represent the mean value of two test series involving double determination.

[2] = tested on: human leukaemic granulocytes; experiment: Anti-inflammatory activity: respiratory burst of granulocytes (zymosan, luminol); settings: + stimulation (zymosan), blank + stimulation = 100
Text: In the course of cutaneous inflammation, leucocytes, such as the polymorphonuclear neutrophilic granulocytes (PMNs) for example, are stimulated by peptides, such as cytokines for example, to emit messenger substances, such as leucotriene for example, which are released from activated or necrotic cells in the dermis. These activated PMNs release not only pro-inflammatory cytokinins, leucotrienes and proteases, but also ROS, such as superoxides and hypochlorite anions for example, of which the function is to destroy penetrated pathogenic germs or fungi. This activity of the PMNs during the inflammation is known as so-called respiratory burst. To investigate to what extent the test extracts can prevent or reduce the respiratory burst, a cell line of human leukaemic granulocytes of these PMNs was incubated together with the test substances at 37° C. and 5% by vol. CO2. After the respiratory burst had been initiated by addition of a yeast extract (zymosan) to the cell solution, the release of superoxide anions was determined through their reaction with luminol.

[3] = tested on: melanocytes (B16 cell line); experiment: Inhibition of melanin synthesis in B16 melanocytes; settings: 3 days, blank value = 100
Method: Melanin is the pigment responsible for the color of the skin and hair. It is formed in special organelles, the melanosomes, which occur in the melanocytes of the basal layer of the human epidermis. The biosynthesis of melanin begins with the amino acid tyrosine which is oxidized to DOPA (dihydroxyphenylalanine) in the presence of tyrosinase. The DOPA then polymerizes to melanin. […] After incubation for 3 days at 37° C./5% CO2, the nutrient medium was replaced by a solution containing the test substances in various concentrations. After incubation for another 3 days, the cell protein content (Bradford's method) and the content of synthesized melanin were determined through the optical density of the homogenizate at 475 nm. The results are expressed in % against a blank value and are set out in Table 7.

human keratinocytes [4] = experiment: Growth inhibition on human keratinocytes with EGF; settings: with EGF 10 ng/ml, 3 days, control = 100, control with EGF = 167
Method: Increased proliferation and differentiation of keratinocytes of the hair matrix leads to improved longer hair growth. The following test was carried out to determine the potential of the sugar esters for inhibiting hair growth which is visibly reflected in a reduction in the proliferation of human keratinocyte culture in vitro.
To this end, human keratinocytes were cultivated in a standard cell culture medium containing foetal calf serum (FCS). After incubation for 1 day at 37° C./5% CO2, the growth medium was replaced by standard medium containing 10 ng/ml epidermal growth factor (EGF) and various concentrations of sugar esters dissolved in ethanol (1% by volume).
After incubation for three days, the number of living cells was determined by determining the cell protein content by the Bradford method [Bradford, M. M., A rapid and sensitive method for the quantitation of microgram quantities of protein utilizing the principle of protein-dye binding. Anal. Biochem. (1977), Vol. 72, pp. 248-254].
The results of Table 8 represent the values of triple determinations on two batches expressed in % against a control of cell culture medium without sugar ester.

Propionibacterium acnes = experiment: Agar diffusion method, inhibition zones; settings: filter paper with 20 μl test substance; 18 to 24 h at 37° C., anaerobic
Method: (§1) The antibacterial activity of the test substances was tested by the diffusion method on agar plates or the agar dilution method. In this method, a round filter paper of defined diameter is first impregnated with the test solution and then applied to the surface of an agar plate inoculated beforehand with the test microorganisms. The size of the inhibition zones is then determined after defined times. In particular, it is possible by this method to determine the MIC (Minimum Inhibitory Concentration) as the lowest concentration of test substance with which complete inhibition of the microorganisms can be obtained.
(§2) Agar diffusion method. The inoculum was prepared using a fresh culture in a stationary growth phase (after ca. 18-24 h) in a BHI solution (brain-heart Infusion). The bacterial suspension was adjusted to 0.5 MacFarland units, corresponding to 1.5 10^8 colony-forming units (cfu)/ml; the suspension was then diluted with a sodium chloride solution (1:100) to adjust a value of 1.5 10^6 cfu/ml. Mueller-Hinton agar (Staphylococcus epidermidis, Staphylococcus aureus) and Wilkins-Chalgrens agar containing 5% by weight sheep's blood (Propionibacterium acnes) were then sterilized for 15 mins. at 121° C. and then placed in Petri dishes. 2 to 4 ml of the bacterial suspension were then added to the Petri dishes, followed by drying at room temperature. The filter papers were impregnated with 20 μl of the test substances and applied to the surface of the agar plates. The inoculated Petri dishes were incubated for 18 to 24 h at 37° C. (the Petri dishes containing Propionibacterium acnes under anaerobic conditions) and the antimicrobial activity was then determined by determination of the growth inhibition zones. The results are set out in Table 10 and represent the diameters of the inhibition zones in mm.

Staphylococcus aureus = experiment: Agar diffusion method, inhibition zones; settings: filter paper with 20 μl test substance; 18 to 24 h at 37° C.
Method: as §1, §2

[5] = tested on: Staphylococcus epidermidis; experiment: Agar diffusion method, inhibition zones; settings: filter paper with 20 μl test substance; 18 to 24 h at 37° C.
Method: as §1, §2

## Fructose caprate
Human keratinocytes [1]; conc. 0.001 % w/v
  Cell DNA: 32 %-rel.
  LDH released: 68 %-rel.
  PGE2 released: 35 %-rel.
Human keratinocytes [1]; conc. 0.003 % w/v
  Cell DNA: 140 %-rel.
  LDH released: 0 %-rel.
  PGE2 released: 0 %-rel.
[2]; conc. 0.003 % w/v
  Cell counts: 97 %-rel.
  ROS released: 87 %-rel.
[2]; conc. 0.01 % w/v
  Cell counts: 60 %-rel.
  ROS released: 5 %-rel.
[3]; conc. 0.003 % w/v
  Cell melanin: 54 %-rel.
  Cell proteins: 108 %-rel.
[3]; conc. 0.006 % w/v
  Cell melanin: 30 %-rel.
  Cell proteins: 80 %-rel.
Human keratinocytes [4]; conc. 0.001 % w/v
  Cell protein content in %: 163%
Human keratinocytes [4]; conc. 0.003 % w/v
  Cell protein content in %: 130%
Human keratinocytes [4]; conc. 0.01 % w/v
  Cell protein content in %: 45%
Propionibacterium acnes
  Inhibition zones, Propionibacterium acnes: 14 mm
Staphylococcus aureus
  Inhibition zones, Staphylococcus aureus: 10 mm
[5]
  Inhibition zones, Staphylococcus epidermidis: 9 mm
